Earlier results as cited in patent US20240033249A1, “Drug Implants Containing Darolutamide and Methods of Use Thereof” (The Regents of the University of California, priority 2022, published 2024).

Conditions: assuming 600 mg daily dose; systemic (e.g., oral) administration

steady state blood plasma concentration of Darolutamide: about 4.79 mg/L
SMILES: CC(O)c1cc(C(=O)N[C@@H](C)Cn2ccc(-c3ccc(C#N)c(Cl)c3)n2)[nH]n1 (stereo partly shown) [Darolutamide]
